The results in this text go back to ChEMBL document CHEMBL5441456, “ASAP - SARS-CoV-2 nsp3 macrodomain dose response” (2024).

Where “and” joins values, the source holds several entries; their conditions need not be identical. Equal values may be shown once. Some results are limits rather than exact numbers.

The test has as its target Replicase polyprotein 1ab (Severe acute respiratory syndrome coronavirus 2, UniProt P0DTD1). Description: Functional biochemical assay to identify treatments for viral infectious disease that targets SARS-COV-2 nsp3 macrodomain, whereby the mechanism of action displaces an ADP-Ribose modified peptide from the binding site. Utilizing a time-resolved fluorescence method to measure binding by reading the emitted fluorescence intensity in two wavelengths.
For orientation: IC50 means the point on the concentration scale where inhibition reaches its midpoint. Consider `O=C(O)C[C@@H](NC(=O)c1ccnc2ncccc12)c1ccc(Br)cc1`, for which the IC50 is 87.9 µM and 92.8 µM.

Molecule `O=C(Nc1cccc2c(C(=O)N[C@@H](C(=O)O)c3ccc4c(c3)OCCO4)c[nH]c12)NC1CC1` showed an IC50 above 99.5 µM.

As for `Cc1ccc(C(=O)Nc2ncnc3[nH]c(C)c(C)c23)cn1`, the IC50 was above 99.5 µM.

`O=C(Nc1ncnc2c(C(=O)NC3(c4ccccc4F)CCCCC3)csc12)NC1CC1` returned an IC50 above 99.5 µM.

On to `CC(=O)c1ccc(S(=O)(=O)Nc2cnc3[nH]ccc3c2)cc1`, for which the IC50 is above 99.5 µM.

For the molecule `Cn1cc([C@@H](NC(=O)c2c[nH]c3c(NC(=O)NC4CC4)cccc23)C2CCC2)cn1`, the IC50 is above 99.5 µM.

In turn, `NS(=O)(=O)C[C@@H](NC(=O)c1ncnc2[nH]ccc12)c1ccc(Br)cc1` yielded an IC50 above 99.5 µM.

`CS(=O)(=O)NC1CCC(Nc2ccc([C@@H](CC(=O)O)NC(=O)c3ncnc4[nH]ccc34)cc2)CC1` (stereo partly specified): the IC50 is 73.7 µM and 86 µM.

As to `O=C(O)C[C@@H](NC(=O)c1cccc2cc[nH]c12)c1ccc(Br)cc1`, the IC50 is above 99.5 µM.

In the case of `O=C(NCc1nc(-c2cc3c(N4CCCC5(CC5)C4)ncnc3[nH]2)c[nH]1)c1ccc(F)nc1`, the IC50 was 24.8 µM and 20.8 µM.

Take `COCc1cc(CNc2ccc([C@@H](CC(=O)O)NC(=O)c3ncnc4[nH]ccc34)cc2)on1`: the IC50 was 10.6 µM and 12.4 µM.

Consider `Cc1[nH]c2ncnc(NC(=O)c3ccc(Cl)nn3)c2c1C`, for which the IC50 is above 99.5 µM.

For the molecule `CC(C)n1nccc1S(=O)(=O)Nc1cnc2[nH]ccc2c1`, the IC50 is above 99.5 µM.

Molecule `Cc1[nH]c2ncnc(NC(=O)c3ccnnc3)c2c1C` came in with an IC50 above 99.5 µM.

Take `Cc1[nH]c2ncnc(NC(=O)c3cccc(Cl)n3)c2c1C`: the IC50 was above 99.5 µM.

`Cc1[nH]c2ncnc(NC(=O)c3cccnn3)c2c1C` registered an IC50 above 99.5 µM.

Turning to `Cc1[nH]c2ncnc(NC(=O)c3ccc(-n4cccn4)nc3)c2c1C`, the IC50 is above 99.5 µM.

On to `COc1ccc2c(NC(=O)c3ccc(NC(=O)NC4CC4)cc3)c(C(=O)O)sc2c1`, for which the IC50 is above 99.5 µM.

In turn, `Cc1[nH]c2ncnc(NC(=O)Cc3ccc(Cl)nc3)c2c1C` registered an IC50 above 99.5 µM.

For `O=C(O)C[C@@H](CNC(=O)c1ncnc2[nH]ccc12)c1ccc(Cl)cc1`, the IC50 was 65.3 µM and 71.3 µM.

`COCc1cc(CNc2ccc([C@@H](CC(=O)O)NC(=O)c3c[nH]c4ncncc34)cc2)on1` displayed an IC50 above 99.5 µM.

Molecule `Cc1[nH]c2ncnc(NC(=O)c3ccc(N(C)C)nc3)c2c1C` had an IC50 above 99.5 µM.

Consider `Cc1cc2c(C(=O)N[C@@H](CC(=O)O)c3ccc(Br)cc3)cccc2[nH]1`, for which the IC50 is above 99.5 µM.

On to `O=S(=O)(Cc1ccc(F)cc1)Nc1cnc2[nH]ccc2c1`, for which the half-maximal inhibitory concentration (IC50) is above 99.5 µM.

Regarding `O=C(N[C@@H](CCO)c1ccccc1F)c1ncnc2[nH]ccc12`, the IC50 is above 99.5 µM.

Molecule `COc1ccc(S(=O)(=O)Nc2cnc3[nH]ccc3c2)cc1C(N)=O` gave an IC50 above 99.5 µM.

On to `O=C(O)C[C@@H](NC(=O)c1ccnc2cn[nH]c12)c1ccc(Br)cc1`, for which the IC50 was 10.3 µM and 9.53 µM.

`O=C(O)C[C@@H](NC(=O)c1cccc2[nH]cnc12)c1ccc(Br)cc1`: the IC50 is 39.2 µM and 40.3 µM.

As for `CC(C)[C@@H](NC(=O)c1c[nH]c2c(NC(=O)NC3CC3)cccc12)C(F)F`, the IC50 was above 99.5 µM.

As for `CN(C)c1ccc(C(=O)N[C@@H](CC(=O)O)c2ccc(Br)cc2)nc1`, the IC50 was above 99.5 µM.

Molecule `CC(C)[C@@H](Cc1ccc(F)cc1)NC(=O)c1ncnc2[nH]ccc12` returned an IC50 above 99.5 µM.

In the case of `O=C(O)C[C@@H](NC(=O)Cc1c[nH]c2ncccc12)c1ccc(Br)cc1`, the IC50 is above 99.5 µM.

In turn, `O=C(NCSC[C@@H](NC(=O)c1ncnc2[nH]ccc12)C(=O)O)c1ccccc1` had a half-maximal inhibitory concentration (IC50) above 99.5 µM.

Molecule `N#CCc1cccc(S(=O)(=O)Nc2cnc3[nH]ccc3c2)c1` yielded an IC50 above 99.5 µM.

Take `O=S(=O)(Cc1ccccc1F)Nc1cnc2[nH]ccc2c1`: the IC50 was above 99.5 µM.

Regarding `O=C(NCc1ccccc1F)c1ncnc2[nH]ccc12`, the IC50 was above 99.5 µM.

`NC(=O)C[C@@H](NC(=O)c1ncnc2[nH]ccc12)C1CCCCC1`: the half-inhibitory concentration (IC50) was above 99.5 µM.

On to `COc1ccc(C(=O)N2CCC(c3ccn4ncc(C(=O)N[C@@H]5CCC[C@@H]5C(=O)O)c4c3)CC2)cc1`, for which the IC50 is 20.2 µM and 24.6 µM.

For `CCc1cnn(C)c1NC(=O)c1ncnc2[nH]ccc12`, the IC50 was above 99.5 µM.

For the molecule `O=C(O)C[C@@H](NC(=O)c1ccnc(-n2cccc2)c1)c1ccc(Br)cc1`, the IC50 was above 99.5 µM.

Turning to `COc1cc(Nc2ccc([C@@H](CC(=O)O)NC(=O)c3ncnc4[nH]ccc34)cc2)n[nH]1`, the IC50 is 7.57 µM and 7.27 µM.

Molecule `Cc1[nH]c2ncnc(NC(=O)c3cccnc3)c2c1C` returned an IC50 above 99.5 µM.

In the case of `O=C(O)C[C@@H](NC(=O)c1nccc2[nH]ncc12)c1ccc(Br)cc1`, the IC50 was 24.7 µM and 24.2 µM.

Take `COc1ccc(C(=O)Nc2ncnc3[nH]c(C)c(C)c23)cn1`: the IC50 is above 99.5 µM.

In the case of `CC(C)[C@@H](CO)NC(=O)c1c[nH]c2c(NC(=O)NC3CC3)cccc12`, the IC50 was above 99.5 µM.

Consider `Cc1[nH]c2ncnc(NC(=O)c3ccc(C#N)nc3)c2c1C`, for which the IC50 was above 99.5 µM.

With `Cc1[nH]c2ncnc(NC(=O)c3cnc(Cl)cn3)c2c1C`, the IC50 was above 99.5 µM.

The molecule `Cc1cc(C)cc(CS(=O)(=O)Nc2cnc3[nH]ccc3c2)c1` displayed an IC50 above 99.5 µM.

The molecule `Cc1[nH]c2ncnc(NC(=O)c3ccc(-n4cnnc4)cc3)c2c1C` registered a concentration for half-maximal inhibition (IC50) above 99.5 µM.

For `O=C(O)C[C@@H](NC(=O)c1cccc2[nH]ncc12)c1ccc(Br)cc1`, the IC50 was above 99.5 µM.

Regarding `Cc1[nH]c2ncnc(NC(=O)c3ncccc3Cl)c2c1C`, the IC50 was 49.3 µM and 60.3 µM.

Consider `O=C(Nc1cccc2c(C(=O)N[C@@H](c3ccccc3)C(F)F)c[nH]c12)NC1CC1`, for which the IC50 was above 99.5 µM.

Take `O=C(O)C[C@@H](NC(=O)c1c[nH]c2ncccc12)c1ccc(Br)cc1`: the 50% inhibitory concentration (IC50) is 27.4 µM and 29 µM.

For `Cc1ccc(C(=O)N2CCC(c3ccn4ncc(C(=O)N[C@@H]5CCC[C@@H]5C(=O)O)c4c3)CC2)cc1`, the IC50 was 20.7 µM and 21.8 µM.

Molecule `O=C(Nc1ccc(C(=O)Nc2c(C(=O)O)sc3cnccc23)cc1)NC1CC1` came in with an IC50 above 99.5 µM.

In turn, `NC(=O)[C@@H](NC(=O)c1ncnc2[nH]ccc12)c1ccc(F)cc1` displayed an IC50 above 99.5 µM.

Turning to `O=C(N[C@@H]1CCC[C@@H]1C(=O)O)c1cnn2ccc(C3CCN(C(=O)c4ccc(Cl)cc4)CC3)cc12`, the IC50 was 32.5 µM and 24.5 µM.

For the molecule `COc1ccc([C@@H](CC(=O)O)NC(=O)c2ncnc3[nH]ccc23)cc1`, the IC50 is 2.07 µM and 2.12 µM and 3.68 µM.

The molecule `NC(=O)c1ccc(S(=O)(=O)Nc2cnc3[nH]ccc3c2)cc1` registered an IC50 above 99.5 µM.

In turn, `Cc1[nH]c2ncnc(NC(=O)[C@@H]3CCc4c(Cl)cccc43)c2c1C` showed an IC50 above 99.5 µM.

In the case of `O=C(N[C@@H](Cc1ccc(Br)cc1)C(=O)O)c1ncnc2[nH]ccc12`, the IC50 is above 99.5 µM.

For `Cn1ncc2c(C(=O)N[C@@H](CC(=O)O)c3ccc(Br)cc3)ccnc21`, the IC50 was 70.2 µM and 81.7 µM.

`CC(=O)Nc1ccc(C(=O)Nc2ncnc3[nH]c(C)c(C)c23)cc1Cl` displayed an IC50 above 99.5 µM.

Take `Cc1nc2c(C(=O)N[C@@H](CC(=O)O)c3ccc(Br)cc3)ccnc2[nH]1`: the IC50 was 20.6 µM and 20.2 µM.

For `O=C(O)C[C@@H](NC(=O)c1cncc2[nH]ccc12)c1ccc(Br)cc1`, the half-inhibitory concentration (IC50) is 35.8 µM and 41.3 µM.

Molecule `C[C@@H](O)[C@@H](NC(=O)c1csc2c(NC(=O)NC3CC3)ncnc12)c1ccccc1F` returned an IC50 above 99.5 µM.

`Cc1ncc(CCNC(=O)c2csc3c(NC(=O)NC4CC4)ncnc23)s1` had an IC50 above 99.5 µM.

`COC[C@@H]1C[C@@H]1CNc1ccc([C@@H](CC(=O)O)NC(=O)c2c[nH]c3ncncc23)cc1` gave an IC50 above 99.5 µM.

`Cc1[nH]c2ncnc(NC(=O)c3ccc(S(C)(=O)=O)nc3)c2c1C`: the IC50 was above 99.5 µM.

`O=C(Nc1ncnc2c(C(=O)N[C@@H](c3cccs3)C3CCCC3)csc12)NC1CC1` came in with a 50% inhibitory concentration (IC50) above 99.5 µM.

As to `Cc1[nH]c2ncnc(NC(=O)Cc3cn[nH]c3)c2c1C`, the IC50 was 75.2 µM and 99 µM.

`NC(=O)C[C@H](NC(=O)c1ncnc2[nH]ccc12)c1ccc(Cl)cc1` displayed an IC50 above 99.5 µM.

`Cc1[nH]c2ncnc(NC(=O)c3ccc(Cl)cn3)c2c1C` showed a half-maximal inhibitory concentration (IC50) above 99.5 µM.

`O=C(NCc1ccc(F)cn1)c1ncnc2[nH]ccc12` displayed an IC50 above 99.5 µM.

The molecule `CC(C)[C@@H](NCc1ccc(-n2ccnc2)cc1)c1ccc2c(c1)OCCO2` returned an IC50 above 99.5 µM.

For the molecule `O=C(N[C@@H](CO)Cc1ccncc1)c1ncnc2[nH]ccc12`, the half-inhibitory concentration (IC50) was above 99.5 µM.

Turning to `O=C(O)C[C@@H](NC(=O)c1cc2[nH]ccc2cn1)c1ccc(Br)cc1`, the IC50 was 6.82 µM and 7.54 µM.

Turning to `O=C(Nc1cccc2c(C(=O)N[C@@H]3c4ccccc4C[C@@H]3C(=O)O)c[nH]c12)NC1CC1`, the IC50 was 3.47 µM and 3.78 µM and 2.28 µM and 1.85 µM.

Molecule `CC(C)[C@@H](NC(=O)c1ccnc2ccccc12)c1ccc2c(c1)OCCO2` displayed an IC50 above 99.5 µM.

`O=C(O)C[C@@H](NC(=O)c1ccc2[nH]ccc2n1)c1ccc(Br)cc1`: the IC50 is 41.2 µM and 38.3 µM.

With `CCc1coc(Nc2ccc([C@@H](CC(=O)O)NC(=O)c3c[nH]c4ncncc34)cc2)n1`, the IC50 was 70.9 µM and 76.1 µM.

`Cc1[nH]c2ncnc(NC(=O)[C@@H]3CCCc4ncccc43)c2c1C` registered an IC50 above 99.5 µM.

In the case of `O=C(N[C@@H](C(=O)O)c1ccc(Br)cc1)c1ncnc2[nH]ccc12`, the IC50 was 52.1 µM and 62.9 µM.

Consider `O=C(O)C[C@@H](NC(=O)c1nccc2cc[nH]c12)c1ccc(Br)cc1`, for which the IC50 was 29.6 µM and 31.2 µM.

As for `Cn1ccc2c(C(=O)N[C@@H](CC(=O)O)c3ccc(Br)cc3)ccnc21`, the 50% inhibitory concentration (IC50) is 36.6 µM and 33.2 µM.

Turning to `CN(C)C(=O)c1cccc(S(=O)(=O)Nc2cnc3[nH]ccc3c2)c1`, the IC50 was above 99.5 µM.

As for `Cc1[nH]c2ncnc(NC(=O)c3cc(Cl)ccn3)c2c1C`, the IC50 is above 99.5 µM.

Take `C[C@@H](c1ccc(F)c(F)c1)N(C)C(=O)c1ncnc2[nH]ccc12`: the concentration for half-maximal inhibition (IC50) is above 99.5 µM.

As to `O=C(N[C@@H]1CCC[C@@H]1C(=O)O)c1cnn2ccc(C3CCN(C(=O)c4ccc(Cl)c(Cl)c4)CC3)cc12`, the IC50 was 38 µM and 40.8 µM.

As for `Cc1[nH]c2ncnc(NC(=O)C3(c4ccc(F)cc4)CCC3)c2c1C`, the IC50 was 19.5 µM and 21.8 µM.

In turn, `O=C(O)C[C@@H](NC(=O)c1cnc2[nH]ccc2c1)c1ccc(Br)cc1` displayed an IC50 above 99.5 µM.
